Laboratory results from US8507454B2, “Methods and unit dose formulations for the inhalation administration of aminoglycoside antibiotics” (priority 2001, dated 2013).
Entries after “also recorded” stand apart in the source; their conditions may differ.

Columns and labels:
[1] = Example 1: urine tobramycin recovery; type: in vivo, human; settings: 7 days after prestudy or previous TOBI dose, LOQ 1.0 μg/mL
Experimental: Urine specimens were collected and combined in a 24-hour collection container during the 12 hours before treatment (−12-0 hour period) and during 0-8 hour and 8-24 hour collection periods after treatment according to instructions provided in the Study Manual. Total urine volume for the collection period was recorded, and a 10 mL aliquot from each urine collection was retained and frozen for later analysis of urine tobramycin concentration.
The recovery of tobramycin in urine (in […]) during 0-8 hour and 8-24 hour collection periods was calculated as follows. urine tobramycin recovery (μg)=urine volume (mL)·urine tobramycin concentration (μg/mL)
Urine tobramycin recovery was normalized for each collection period according to TOBI dose as follows. dose-normalized urine tobramycin recovery (μg/mg)=[urine tobramycin recovery (μg)÷TOBI dose (mg)]
The percent of the TOBI dose excreted in urine in the 24-hour period following treatment was calculated as follows. % tobramycin excreted in urine =[(urinary recovery in μg÷1000 μg/mg)÷TOBI dose in mg]·100%.
Tobramycin concentrations in urine were measured by Abbott TDxFLx® assay [urine lower limit of quantitation (LOQ)=1.0 μg/mL].

[2] = Example 3: serum tobramycin pharmacokinetics; type: in vivo; settings: both sexes, human, inhaled, both formulations (300 mg TOBI, 420 mg TSI), read-out: Individual estimates of serum half-life, range
Experimental: A comparison was made of the safety, pharmacokinetics, aerosol delivery characteristics, and nebulization time of the conventional dose and inhalation delivery system (5 mL ampoule containing 300 mg tobramycin and 11.25 mg sodium chloride in sterile water for injection (TOBI® tobramycin solution for inhalation, Chiron Corporation, Seattle, Wash.), pH 6.0; administered with a PART LC PLUS™ jet nebulizer with a DeVilbiss PulmoAide™ compressor set to deliver an output pressure of 20 psi—the “control delivery system”) with a dose of 420 mg Tobramycin Solution for Inhalation at 120 mg/mL (excipient 3.5 mL of ¼ normal saline adjusted to a pH of 6.0±0.5; 420 mg in 3.5 mL) delivered by the PAM LC PLUS™ jet nebulizer with a Invacare MOBILAIRE™ compressor set to deliver an output pressure of 35 psi (the “experimental delivery system”).
The study was designed as an open label, randomized, single-dose, multicenter, two treatment, active-control, and parallel trial. […]
Serum Tobramycin Concentrations: Blood samples were collected at predose and at 0.167, 1, 2, 4, 6, and 8 h after the end of the nebulization period. […] Concentrations of tobramycin in serum were analyzed with a modified fluorescence polarization immunoassay (FPIA) method using the Abbott TDx®/TDxFLx® System. […] The lower limit of quantitation was 0.050 μg/mL. […]

[3] = Example 3: sputum tobramycin pharmacokinetics; type: in vivo; settings: both sexes, human, inhaled, both formulations (300 mg TOBI, 420 mg TSI), read-out: Individual estimates of sputum half-life, range
Experimental: A comparison was made of the safety, pharmacokinetics, aerosol delivery characteristics, and nebulization time of the conventional dose and inhalation delivery system (5 mL ampoule containing 300 mg tobramycin and 11.25 mg sodium chloride in sterile water for injection (TOBI® tobramycin solution for inhalation, Chiron Corporation, Seattle, Wash.), pH 6.0; administered with a PART LC PLUS™ jet nebulizer with a DeVilbiss PulmoAide™ compressor set to deliver an output pressure of 20 psi—the “control delivery system”) with a dose of 420 mg Tobramycin Solution for Inhalation at 120 mg/mL (excipient 3.5 mL of ¼ normal saline adjusted to a pH of 6.0±0.5; 420 mg in 3.5 mL) delivered by the PAM LC PLUS™ jet nebulizer with a Invacare MOBILAIRE™ compressor set to deliver an output pressure of 35 psi (the “experimental delivery system”). […]
Sputum Tobramycin Concentrations: Sputum samples were expectorated by patients from a deep cough and collected before day 1 dosing (predose) and at 0.25, 1, 2, 4, and 8 h after the end of the nebulization period. […] The concentration of tobramycin was analyzed using reversed-phase high-performance liquid chromatography (HPLC) with ultraviolet detection. […] After addition of 600 μL of 60/40 acetonitrile/water (v/v), 50 μL was analyzed by HPLC. […]

[4] = test system: Gram-negative bacteria; settings: Neu 1976; cited from earlier work
[5] = test system: P. aeruginosa isolates; settings: initial sputum cultures, Children's Hospital CF Center, Seattle, 1993; cited from earlier work
[6] = test system: P. aeruginosa; settings: cited from earlier work

SMILES: NC[C@H]1O[C@H](O[C@H]2[C@H](O)[C@@H](O[C@H]3O[C@H](CO)[C@@H](O)[C@H](N)[C@H]3O)[C@H](N)C[C@@H]2N)[C@H](N)C[C@@H]1O [tobramycin]
- Measurable predose urine tobramycin concentration during period listed, individual patients ([1]; after prestudy tobramycin): Per 1 - 1.82 μg/mL; also recorded: Per 1 - 3.14 μg/mL; also recorded: Per 1 - 1.74 μg/mL; also recorded: Per 1 - 2.72 μg/mL; also recorded: Per 1 - 3.80 μg/mL
- Measurable predose urine tobramycin concentration during period listed, individual patients ([1]; after previous TOBI 30 mg): Per 3 - 1.20 μg/mL
- Measurable predose urine tobramycin concentration during period listed, individual patients ([1]; after previous TOBI 60 mg): Per 3 - 1.30 μg/mL; also recorded: Per 3 - 13.22 μg/mL
- Measurable predose urine tobramycin concentration during period listed, individual patients ([1]; after previous TOBI 90 mg): Per 2 - 3.10 μg/mL
- Measurable predose urine tobramycin concentration during period listed, individual patients ([1]; after previous TOBI 300 mg): Per 2 - 2.06 μg/mL; also recorded: Per 2 - 2.58 μg/mL; also recorded: Per 2 - 1.48 μg/mL; also recorded: Per 2 - 1.58 μg/mL; also recorded: Per 2 - 2.28 μg/mL; also recorded: Per 3 - 2.70 μg/mL; also recorded: Per 3 - 1.16 μg/mL; also recorded: Per 3^c - 1.12 μg/mL; also recorded: Per 3 - 2.08 μg/mL
- half-life [2]: 66 to 408 min
- half-life [3]: 28.8 to 568 min
- Concentrations effective in inhibiting the growth of many Gram-negative bacteria [4]: < 4 µg/mL
- MICs of 90% of isolates [5]: ≤ 16 µg/mL
- MICs of 98% of all isolates [5]: ≤ 128 µg/mL
- Average decrease in P. aeruginosa density, Week 0 to Week 20 ([6]; 300 mg inhaled tobramycin twice daily, 28 days on/28 days off, Ramsey 1999): 0.8 log10
- Average decrease in P. aeruginosa density, Week 0 to Week 4 ([6]; 300 mg inhaled tobramycin twice daily, Ramsey 1999): 1.9 log10
- Sputum density of P. aeruginosa ([6]; 600 mg tid aerosolized tobramycin, 71 CF patients, crossover trial, Ramsey 1993): significant reduction
